Test results: ChEMBL document CHEMBL2074565, “Molecular mechanisms of organic cation transport in OCT2-expressing Xenopus oocytes” (Biochim Biophys Acta, 1999)

B1: Solute carrier family 22 member 2 (Rattus norvegicus) (protein)
chain: MSTVDDILEHIGEFHLFQKQTFFLLALLSGAFTPIYVGIVFLGFTPDHHCWSPGAAKLSQRCGWSQAEELNYTVPGLGPSDEASFLSQCMRYEVDWNQSTLDCVDPLSSLAADRNQLPLGPCEHGWVYNTPGSSIVTEFNLVCAHSWMLDLFQSVVNVGFFIGAMMIGYLADRFGRKFCLLVTILINAISGALMAISPNYAWMLVFRFLQGLVSKAGWLIGYILITEFVGLGYRRMVGICYQIAFTVGLLILAGVAYVIPNWRWLQFAVTLPNFCFLLYFWCIPESPRWLISQNKIVKAMKIIKHIAKKNGKSVPVSLQNLTPDEDAGKKLNPSFLDLVRTPQIRKHTLILMYNWFTSSVLYQGLIMHMGLAGDNIYLDFFYSALVEFPAAFIIILTIDRVGRRYPWAVSNMVAGAACLASVFIPDDLQWLKITIACLGRMGITMAYEMVCLVNAELYPTYIRNLGVLVCSSMCDIGGIITPFLVYRLTDIWMEFPLVVFAVVGLVAGALVLLLPETKGKALPETIEDAENMQRPRKKKEKRIYLQVKQADRPLS

What was measured:
[1] = biological target: T1, Solute carrier family 22 member 2 (Rattus norvegicus, UniProt Q9R0W2); test: TP_TRANSPORTER: inhibition of TEA uptake (TEA: 100 uM) in Xenopus laevis oocytes; format: functional, cell-based, Oocyte
T1 sequence (Q9R0W2 whole entry): B1 chain

[2] = biological target: T1, Solute carrier family 22 member 2; test: TP_TRANSPORTER: inhibition of TEA uptake (TEA: 250 uM, Levofloxacin: 5000 uM) in Xenopus laevis oocytes; format: functional, cell-based; conditions: oocyte
[3] = biological target: T2, Solute carrier family 22 member 1 (Rattus norvegicus, UniProt Q63089)
T2 sequence (Q63089 whole entry): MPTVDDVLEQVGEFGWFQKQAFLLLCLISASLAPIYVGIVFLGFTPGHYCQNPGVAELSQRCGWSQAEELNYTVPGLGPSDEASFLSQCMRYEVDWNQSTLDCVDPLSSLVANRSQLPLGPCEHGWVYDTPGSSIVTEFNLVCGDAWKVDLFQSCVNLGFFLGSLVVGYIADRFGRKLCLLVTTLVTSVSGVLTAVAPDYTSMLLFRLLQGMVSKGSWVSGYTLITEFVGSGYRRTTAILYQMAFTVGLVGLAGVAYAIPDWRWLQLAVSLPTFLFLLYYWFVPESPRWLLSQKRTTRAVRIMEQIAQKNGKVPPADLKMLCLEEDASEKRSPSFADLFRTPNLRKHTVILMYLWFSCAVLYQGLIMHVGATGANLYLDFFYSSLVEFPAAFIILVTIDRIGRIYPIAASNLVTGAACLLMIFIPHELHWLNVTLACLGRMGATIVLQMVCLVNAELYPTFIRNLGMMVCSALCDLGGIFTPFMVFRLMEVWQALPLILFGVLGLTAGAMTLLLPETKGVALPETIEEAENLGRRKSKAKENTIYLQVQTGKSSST

[4] = substrate: CC[N+](CC)(CC)CC; test: cells, lysate or membranes named

Molecule | IC50 [1] [µM] | Activity [2] | IC50 [3] [µM] | Km [4] [µM]
CCN1/C(=C/c2ccc3ccccc3[n+]2CC)C=Cc2ccccc21 | 13.8 | – | – | –
C[C@H]1COc2c(N3CCN(C)CC3)c(F)cc3c(=O)c(C(=O)O)cn1c23.C[C@H]1COc2c(N3CCN(C)CC3)c(F)cc3c(=O)c(C(=O)O)cn1c23.O [LEVOFLOXACIN] | – | inhibitor [+] | – | –
C[N+](C)(C)CCO [CHOLINE] | 159 | – | 398 | –
CN/C(=N/CCSCc1nc[nH]c1C)NC#N [CIMETIDINE] | 373 | – | 329 | –
B1 | – | – | – | 33.8
